Assay [1] has as its system NaCl treated diabetic rats modeled with heart failure. Kind of assay: Chronic heart failure, first batch, ultrasonic cardiogram evaluation. It counts as in vivo, rat. The note with it: valsartan 10 mg/kg, compound A 18 mg/kg ig. On the procedure: The pharmacodynamic evaluation was conducted by using a noninvasive ultrasonic cardiogram method.
Evaluation indexes: (1) morphology indexes: left ventricular posterior wall dimensions (LVPWd), left ventricular diastasis internal diameter (LVDd), end systolic diameter (LVDs); (2) functional indexes: ejection fraction (EF), shortening fraction (FS), ventricular early blood flow filling rate (E), atrial filling rate (A) and ratio of E/A; Doppler tissue image; at cardiac apical four chamber view, the valve ring of anterior mitral valve was used as sampling point, peak early diastolic velocity (Ea peak), peak late diastolic velocity (Aa peak), and Ea/Aa ratio reflected the systolic and diastolic motion of the whole left ventricle.
SPSS statistic software was used to analyze and treat data, and all data were expressed in mean±standard deviation (Mean±SD).

The test system of assay [2] is diabetic-hypertension rats. The procedure: The experiment about influence of AGEs breaker on hypotensive effect of nifedipine was performed on a diabetic-hypertension rat model. […] During the experiment, the animals took food freely, and were not interfered with any hypoglycemic drugs or hypotensive drugs.
The compound A was dissolved in distilled water, ready for use. Rats were randomly grouped as diabetic-hypertension control (DM-HTN) group and A (18 mg/kg) group. The drug was introgastrically administered once per day, and an equal amount of distilled water was administered in the diabetic-hypertension control group, for consecutive 4 weeks. After the end of experiment, blood samples were taken, thoracic aorta, liver, kidney were stored at −70° C. for standby use, and used for assays for tissue biochemical indicators and gene expression. Another part of kidney was fixed with 4% paraformaldehyde and used for pathological staining.
Nifedipine powder was formulated with DMSO to form a 5 mg/ml solution, then diluted with 15% ethanol-10% DMSO-25% PEG400 to form a 500 μg/ml solution, and diluted again to form 125 μg/ml, 62.5 μg/ml, 31.25 μg/ml, 15.62 μg/ml, 7.8 μg/ml solutions.
Rats were anesthetized with urethane-chloralose mixture by i.p., subjected to heparin anticoagulation, right common carotid artery cannula, communicated with
Biopac physiological recorder via pressure transducers. Through a right femoral vein remaining needle, nifedipine solutions were injected slowly by 5 batches in an order of concentrations from low to high, and arterial systolic pressure, diastolic pressure, pulse pressure and heart rate change were recorded continuously.

The subject of assay [3] is IgG cross-linked on red blood cell surface. Particulars: RBC of diabetic rats. The procedure: In vitro administration: 0.1 mol/L isoosmia PBS (pH7.4) was used as negative control, and it was used as solvent to form drug solutions of the compounds to be tested with different concentrations. Per 900 μl drug solution or solvent control was added with 100 μl RBC, slightly shaken at 37° C. for 16-18 h; centrifuged at 1000 g and 4° C. for 3 min, supernatant was discarded, 0.1 mol/L is PBS (pH7.4) was used to wash plate for 4 times to remove residual compound;
centrifuged at 1000 g and 4° C. for 3 min, a lower layer of RBC was obtained, diluted by 1:100 and used for ELISA assay.
Immunoadsorption assay protocol for IgG content cross-linked on RBC surface: Multiscreen-HA 0.45 μm 96 well microtiter plate (Millipore) was blocked with Superblock (300 μl/well) at 37° C. for 1 h; then dried at a reduced pressure of 5 mmHg, the plate was washed with PBST for 3 time, with 0.1 MPBS (pH7.4) for 3 times, and the plate was shaken for 1 min per time; the RBC to be tested was added (50 μl/well), and PBS background control wells were set (OD0); dried by suction at a reduced pressure; washed with 0.1mol/L PBS (pH7.4) 150 μl for 4 time, the plate was shaken for 1 min per time. After dried by suction at a reduced pressure, 1:500 diluted goat anti-mouse IgG-HRP (50 μl/well) was added, stood at room temperature for 2 h, dried by suction; washed with 0.1 mol/L PBS (pH7.4) 150μl/well for 3 times, the plate was shaken for 1 min per time; dried by suction; o-phenylene diamine (OPD) substrate coloration solution (100 μl/well) was added, stood at room temperature for 30 min under protection from light, the reaction was terminated with 2 mol/L H2SO4 (100 μl/well); the reaction liquid was quickly drawn off (150 μl/well) and transferred to a normal 96 well enzyme labeled plate, and OD values were measured at 490 nm.
Corrected OD=average OD of RBC sample to be tested−average OD of PBS background wells without RBC, the breaking rate of the compounds is expressed as the percentages of OD490 nm decrease: (OD490 nm of PBS wells−OD490 nm of the compound to be tested)/OD490 nm of PBS wells×100%.

[4] abbreviates: diabetic-hypertension rats, A 18 mg/kg intragastric once per day, 4 weeks.

The structures appear in SMILES notation. Read-outs that look alike come from different tables or passages of the source.

For `Cc1csc[n+]1CC(=O)O.[Na+]` [A, 3-carboxymethyl-4-methyl-thiazolium bromide sodium], in assay [1] (10th week of administration (30th week of modeling), model control 2.5±0.31), the E/A ratio is 1.32±0.31. Also, in assay [1] (10th week of administration), the “Ea/Aa ratio vs model” value was “increased significantly”; the “LVDd and LVDs vs model” value is listed as “slight decrease”; the PWd vs model result is listed as “slight increase”. In addition, the E/A ratio in assay [1] (16th week of administration (36th week of modeling), model control 2.5±0.52) was determined as 1.45±0.18. In assay [2] (setting [4]), this molecule came in with a DBP of 144.2 ± 11.1 mmHg, an HR of 408.7 ± 35.7 beat/min, an MBP of 153.5 ± 13.7 mmHg and a PP of 22.9 ± 3.8 mmHg. Further, in assay [2] (setting [4]), the SBP was 166.6 ± 12.4 mmHg. Also, in assay [2] (diabetic-hypertension rats, compound A for 4 weeks), the “change in heart rate and blood pressure” value was “no significant change”. Moreover, the “hypotensive extent of nifedipine” value in assay [2] (fourth dosage of nifedipine (62.5 μg/ml) i.v., after 4 weeks of A 18 mg/kg, model group 18.92±10.54) stood at 29.99±9.06 mmHg. Also, the “hypotensive effect of nifedipine vs diabetic-hypertension model group” value in assay [2] (from second dosage of nifedipine (15.62 μg/ml), after 4 weeks of A 18 mg/kg) is listed as “increased hypotensive effect”. For the same molecule, the “hypotensive extent of nifedipine” value in assay [2] (third dosage of nifedipine (31.25 μg/ml) i.v., after 4 weeks of A 18 mg/kg, model group 9.35±6.46) came out at 19.49±13.29 mmHg. For the same molecule, the “Breaking rate (OD decrease, %)” value in assay [3] (1 μM) came out at 25.6 ± 2.1%. Besides, the “Breaking rate (OD decrease, %)” value in assay [3] (10 μM) was found to be 26.9 ± 3.0%. For the same molecule, the “Breaking rate (OD decrease, %)” value in assay [3] (30 μM) is given as 21.6 ± 5.0%. Besides, in assay [3] (100 μM), the “Breaking rate (OD decrease, %)” value is listed as 26.0 ± 2.7%. Also, the “AGEs fluorescence content in aorta, left ventricular cardiac muscle and kidney” value with long-term diabetic rats is “significantly decreasing”.

Values taken from patent publication US8338616B2, “Thiazoliums and their use for treating protein aging associated diseases” (Beijing Molecule Science And Technology Co., Ltd., priority 2008, dated 2012).
